For 17 compounds, GI50 and TGI results are on record in PubChem BioAssay (NCI).

Test in all cases: NCI tumour cell line growth inhibition, 48 h
Assay [1] concerns DU-145 prostate.
Assay [2] deals with EKVX NSCLC.
For assay [3], the system named is HCT-116 colon.
Assay [4] has as its system LOX IMVI melanoma.
Assay [5] has as its system NCI-H23 lung.
Assay [6] deals with NCI/ADR-RES ovarian.
For assay [7], the system named is SK-MEL-5 melanoma.
Assay [8] deals with OVCAR-3 ovarian.
In assay [9] the test system is HT29 colon.
Assay [10] deals with OVCAR-4 ovarian.

Each structure is given as a SMILES string. Several values for one entry are separate records, joined by “and”; a condition that tells them apart may be missing. Identical values can stand only once.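 Following 48 hours of exposure in 96-well plates, responses at five concentrations were used to interpolate endpoints linearly. Abbreviation: GI50, concentration required for 50% inhibition of growth. TGI: concentration producing complete growth inhibition.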

In the case of `C[C@]12C[C@H](CCCCCCNCCOC(=O)NCCCc3ccc(N(CCCl)CCCl)cc3)C3=C4CCC(=O)C=C4CCC3C1CC[C@@H]2O` (stereo partly drawn), the GI50 is 0.454 µM in assay [1]; 2.07 µM in [2]; 2.34 µM in assay [3]; 1.06 µM in assay [4]; 1.54 µM in [5]; 14 µM in assay [6]. Besides, the GI50 in assay [7] is 1.47 µM. Also, the TGI in assay [1] amounted to 1.93 µM; in [2], 4.05 µM; in assay [4], 2.27 µM; in assay [5] it was 3.01 µM; in assay [6], 36.2 µM; in [7] it was 3.02 µM.
With `CCOC(=O)/C(C=Nc1ccc(-c2nc3ccccc3[nH]2)cc1)=C(/C)O`, the GI50 in assay [1] is 10.1 µM; in [2], 11.9 µM; in assay [3] it was 7.82 µM; in [4] it was 9.13 µM; in [5], 15 µM; in assay [6], 13 µM. The figures for the GI50 in assay [8] and in assay [7] were 12.7 µM and 7.71 µM, respectively. Moreover, the TGI in assay [1] was 33.3 µM; in assay [2] it was 38.9 µM; in assay [3], 14.5 µM; in assay [4], 16.5 µM; in assay [5], 31 µM; in assay [6], 32.2 µM. In addition, the TGI was 31.7 µM in assay [8] and 15.5 µM in [7].
On to `CCCCCCCCNc1cc2c3c(c1)CCCN3CCC2`, for which the GI50 is 2.61 µM in assay [1]; 0.559 µM in [2]; 1.11 µM in assay [3]; 0.774 µM in [9]; 1.57 µM in assay [4]; 1.79 µM in assay [5]. Besides, the GI50 in assay [6] was 19.7 µM; in assay [8] it was 1.55 µM; in assay [10] it was 1.94 µM; in assay [7] it was 1.49 µM. Moreover, the TGI in assay [1] was determined as 12.8 µM; in assay [2], 15.3 µM; in assay [3], 7.92 µM; in assay [9] it was 11.1 µM; in assay [4] it was 28.5 µM; in assay [5] it was 18.1 µM. Further, the TGI in assay [6] is over 100 µM; in assay [8], 5.81 µM; in assay [10], 12 µM; in assay [7], 3.14 µM.
Turning to `OC(Cc1ccncc1)C(Cl)(Cl)Cl` (stereo not drawn), the GI50 is over 100 µM in assay [1]; 86.3 µM in assay [2]; over 100 µM in [9]; over 100 µM in [4]; 76.3 µM in assay [5]; over 100 µM in assay [6]. Further, the GI50 in assay [8] is 17.4 µM; in [10], over 100 µM. For the same compound, the TGI in assay [1], in [2], in [9], in [4], in assay [5] and in assay [6] was over 100 µM throughout. Further, the TGI in [8] and in assay [10] was over 100 µM each time.
As to `Oc1c(-c2nnc(-c3ccccc3Cl)o2)sc2nnc(-c3ccccc3)c(-c3ccccc3)c12`, the GI50 in assay [1] is 8.26 µM; in assay [2] it was 3.1 µM; in [3], 2.92 µM; in [9] it was 4.06 µM; in [4] it was 2.55 µM; in assay [5], 4.87 µM. In addition, the GI50 is 1.09 µM in [6], 2.64 µM in assay [8], 4.49 µM in assay [10] and 5.99 µM in [7]. Besides, the TGI in assay [1] was over 100 µM; in assay [2], 32.2 µM; in assay [3] it was 11.4 µM; in assay [9], 20.8 µM; in assay [4], 21.8 µM; in assay [5] it was over 100 µM. The TGI in assay [6] is over 100 µM; in assay [8], 8 µM; in assay [10], over 100 µM; in assay [7], 19.8 µM.
Regarding `O.O.[NH-]C1(C(=O)O)CCCC1.[NH-]C1(C(=O)O)CCCC1.[Ni+2]`, the GI50 in [1] is over 100 µM. For the same compound, the TGI in assay [1], in [2], in [3], in assay [9], in [4] and in [5] was over 100 µM throughout. The TGI in assay [6], in [8], in assay [10] and in assay [7] was over 100 µM in each case.
With `COC12C=C/C(=C(/C(=O)OCc3cncnc3)C(=O)CCCCCCCCC3(OC)C=C/C(=C(/C(=O)OCc4cncnc4)C(=O)CCCCCCCC1)O3)O2`, the GI50 in [1] is 0.5 µM; in [2], 0.717 µM; in [3], 0.146 µM; in [9], 0.21 µM; in assay [4], 0.155 µM; in [5], 0.186 µM. Moreover, the figures for the GI50 in [6], in [8] and in assay [10] were 0.609 µM, 0.195 µM and 0.548 µM, respectively. The TGI in [1] came to 2.55 µM; in assay [2], 2.39 µM; in [3] it was 0.433 µM; in assay [9], 1.09 µM; in assay [4], 0.524 µM; in assay [5], 0.839 µM. Besides, the TGI in assay [6] was over 50 µM; in assay [8] it was 1.07 µM; in [10], 2.81 µM.
For the compound `C=C1C(=O)O[C@@H]2C[C@@H](C)[C@@H]3C=CC(=O)[C@@]3(C)[C@@H](O)[C@H]12`, the TGI came to 15.5 µM in assay [1]; 8.89 µM in assay [2]; 4.06 µM in assay [3]; 3.88 µM in assay [9]; 2.01 µM in assay [4]; 4.15 µM in assay [5]. Besides, the TGI in [8] was determined as 3.72 µM; in assay [10] it was 10.5 µM; in assay [7] it was 2.67 µM.
Consider `COc1ccc(/C=C/C(=O)c2cc(OC)c(OC)c(OC)c2)cc1OCc1cn(Cc2ccc(F)cc2)nn1`, for which the GI50 is 2.59 µM in assay [1]; 2.38 µM in assay [3]; 3 µM in [9]; 2.75 µM in assay [4]; 18.9 µM in assay [5]; 2.99 µM in assay [6]. Moreover, the results for the GI50 in [8], in [10] and in [7] were 3.41 µM, 3.42 µM and 3.24 µM, respectively. For the same compound, the TGI in [1] is 6.64 µM; in assay [3], 10.7 µM; in assay [9] it was 7.3 µM; in [4], 18.7 µM; in assay [5], 64.2 µM; in assay [6], over 100 µM. Moreover, the TGI is over 100 µM in assay [8], over 100 µM in assay [10] and 13.3 µM in assay [7].
With `CCOC(=O)c1c(C)nc2c(c1N)CC(=O)N2Cc1ccc(OC)cc1`, the GI50 is over 100 µM in assay [1]; 7.91 µM in assay [2]; over 100 µM in [9]; over 100 µM in [4]; 4.26 µM in assay [5]; 4.96 µM in assay [6]. The GI50 is 6.24 µM in assay [8], over 100 µM in assay [10] and over 100 µM in assay [7]. Besides, the TGI in assay [1], in [2], in assay [9], in assay [4], in assay [5] and in [6] was over 100 µM each time. The TGI in assay [8], in assay [10] and in [7] was over 100 µM throughout.
As to `NS(=O)(=O)c1ccc(-n2nc(-c3ccc(Cl)cc3)cc2-c2cc(O)ccc2O)cc1`, the GI50 in assay [1] was 18.5 µM; in assay [2], 22.6 µM; in assay [5], 18.3 µM; in assay [6], 20.9 µM; in assay [8] it was 4.34 µM; in assay [7], 15.2 µM. Also, the TGI in assay [1] is 35.8 µM; in assay [2], 45.6 µM; in [5], 34.6 µM; in assay [6], 47.6 µM; in [8], 13.7 µM; in assay [7], 32.3 µM.
On to `C=C(C)C(O)CCC1(C)C=Cc2c(c(C)cc3c2[nH]c2ccccc23)O1` (stereo not drawn), for which the TGI in assay [1] is 25.1 µM; in assay [3], 25 µM and 21.5 µM; in assay [9] it was 8.53 µM and 3.26 µM; in assay [4] it was 8.4 µM and 12.2 µM; in [5], 23.3 µM; in [6], 22.6 µM. The TGI in assay [8] was 24 µM and 22 µM; in assay [10], 30.8 µM; in assay [7], 25 µM and 21.7 µM. Further, the GI50 in assay [3] is 9.87 µM; in assay [9], 1.71 µM; in assay [4], 3.12 µM; in assay [8] it was 10.3 µM; in assay [7] it was 10.1 µM.
Consider `O=c1[nH]nnc2c1ncn2C1OC(CO)C(O)C1O` (stereo not drawn), for which the GI50 was 1.38 µM in [1]; 7.59 µM in assay [3]; 13 µM in assay [9]; 2.23 µM in assay [4]; 14.5 µM in assay [5]; 7.74 µM in assay [6]. In addition, the GI50 is 7.75 µM in assay [8], 5.02 µM in assay [10] and 32.9 µM in [7]. Besides, the TGI in [1], in assay [3], in [9], in assay [4], in assay [5] and in assay [6] was over 100 µM throughout. Also, the TGI in [8], in assay [10] and in [7] was over 100 µM in each case.
`O=C1C(Cl)=C(Nc2cccc(F)c2)C(=O)N1Cc1ccc(Cl)cc1`: the GI50 in assay [1] is 2.67 µM; in assay [3] it was 0.392 µM; in [9] it was 0.911 µM; in assay [4], 0.649 µM; in assay [5], 0.832 µM; in assay [6], 0.426 µM. Further, the GI50 is 1.19 µM in assay [8], 4.04 µM in assay [10] and 0.403 µM in assay [7]. Also, the TGI came to 8.44 µM in [1]; 2.7 µM in assay [3]; 12.9 µM in [9]; 3.41 µM in assay [4]; 14.4 µM in assay [5]; 5.61 µM in [6]. Moreover, the results for the TGI in assay [8], in assay [10] and in assay [7] were 6.84 µM, 24.6 µM and 2.19 µM, respectively.
For `COc1ccc(C(=S)N2CCN(c3cccc(C)c3)CC2)cc1OC`, the GI50 in [1] is 4.59 µM; in [2], 7.05 µM; in assay [3], 3.47 µM; in assay [9], 3.3 µM; in [4], 5.46 µM; in assay [5], 9.08 µM. Moreover, the GI50 is 2.06 µM in assay [8], 57.7 µM in assay [10] and 4.55 µM in [7]. Besides, the TGI in assay [1], in assay [2], in assay [3], in [9], in assay [4] and in assay [5] was over 100 µM in each case. The TGI in assay [8] was 5.16 µM; in assay [10] it was over 100 µM; in assay [7] it was over 100 µM.
Take `N#Cc1ccc(OCc2nc(N)nc(N)c2-c2ccc(Cl)c(Cl)c2)cc1`: the GI50 in assay [1] was 3.6 µM; in [3] it was 0.552 µM; in [9], 0.592 µM; in [4], 0.424 µM; in assay [6], 1.55 µM; in [8], 5.24 µM. For the same compound, the GI50 in assay [10] is 6.43 µM; in assay [7], 0.724 µM. For the same compound, the TGI is over 100 µM in assay [1]; over 100 µM in assay [3]; over 100 µM in assay [9]; over 100 µM in assay [4]; over 100 µM in assay [6]; 38.2 µM in [8]. Moreover, the TGI in [10] was over 100 µM; in assay [7], 13.2 µM.
In the case of `C=CCN=c1sc2c(n1NC(=O)c1cc3ccc1CCc1ccc(cc1)CC3)C(=O)c1ccccc1C2=O`, the GI50 in [1] was 1.85 µM; in assay [2] it was 1.39 µM; in [3], 0.577 µM; in [9], 3.09 µM; in [4], 0.532 µM; in [5], 1.46 µM. In addition, the figures for the GI50 in [8], in [10] and in assay [7] were 0.328 µM, 1.26 µM and 1.41 µM, respectively. In addition, the TGI in [1] is 3.45 µM; in assay [2], 3.46 µM; in assay [3] it was 2.58 µM; in [9], over 100 µM; in [4], 2.1 µM; in assay [5], 3.76 µM. The results for the TGI in assay [8], in [10] and in assay [7] were 1.43 µM, 2.56 µM and 2.75 µM, respectively.
